Experimental data: patent publication EP0390673A1, “5-Acyl-benzoxazolinone derivatives, processes for their preparation and pharmaceutical compositions containing them” (ADIR ET COMPAGNIE, priority 1989, dated 1990)

System: souris
Experiment: Analgesic activity, Siegmund test (phenyl-p-benzoquinone-induced stretching)
Type: in vivo
Settings: Mus musculus; oral, 1 hour before i.p. phényl-p-benzoquinone 0,02 %; stretches counted between minutes 5 and 10; read-out: ED₅₀, dose entraînant une activité de 50%
Description: L'activité sur la douleur a été recherchée chez la souris (23-25 g) selon un protocole dérivé de la technique décrite par SIEGMUND (SIEGMUND E.A., R.A. CADMUS & GOLU, J. Pharm. Exp. Ther. 119, 1874, 1954). Les souris, réparties par randomisation en lots de 12 animaux, ont reçu le traitement par voie orale (excipient pour les témoins) 1 heure avant l'injection intra-péritonéale d'une solution hydroalcoolique de phényl-p-benzoquinone (Sigma) à 0,02 %. Les étirements sont dénombrés entre la 5ème et 10ème minute après l'injection.
Le pourcentage d'activité obtenu a été évalué pour chaque dose (% de diminution du nombre d'étirements chez les traités par rapport aux témoins). Une ED₅₀, dose entraînant une activité de 50%, a été déterminée pour chaque produit.

## O=C(c1ccccc1)c1ccc2oc(=O)[nH]c2c1 [Exemple 1, BENZOYL-5 BENZOXAZOLINONE]
  ED50: ~5 mg/kg
